Each molecule was assayed against T1, Androgen Receptor (AR) (Homo sapiens, UniProt P10275, T878A) (assay: LNCaP Androgen Receptor Down-regulation Cell Assay (immunofluorescence end point)). Conditions: LNCaP prostate carcinoma cells, compound incubation 20-22 hours, 50% reduction of the AR signal; read-out: Androgen Receptor Down-regulation Assay (a) IC50/μM.
T1 construct: cell based immuno-fluorescence assay using the LNCaP prostate epithelial cell line; endogenous in cells; host or cells: LNCaP clone FGC (ATCC CRL-1740)
T1 sequence (P10275 1-920 T878A): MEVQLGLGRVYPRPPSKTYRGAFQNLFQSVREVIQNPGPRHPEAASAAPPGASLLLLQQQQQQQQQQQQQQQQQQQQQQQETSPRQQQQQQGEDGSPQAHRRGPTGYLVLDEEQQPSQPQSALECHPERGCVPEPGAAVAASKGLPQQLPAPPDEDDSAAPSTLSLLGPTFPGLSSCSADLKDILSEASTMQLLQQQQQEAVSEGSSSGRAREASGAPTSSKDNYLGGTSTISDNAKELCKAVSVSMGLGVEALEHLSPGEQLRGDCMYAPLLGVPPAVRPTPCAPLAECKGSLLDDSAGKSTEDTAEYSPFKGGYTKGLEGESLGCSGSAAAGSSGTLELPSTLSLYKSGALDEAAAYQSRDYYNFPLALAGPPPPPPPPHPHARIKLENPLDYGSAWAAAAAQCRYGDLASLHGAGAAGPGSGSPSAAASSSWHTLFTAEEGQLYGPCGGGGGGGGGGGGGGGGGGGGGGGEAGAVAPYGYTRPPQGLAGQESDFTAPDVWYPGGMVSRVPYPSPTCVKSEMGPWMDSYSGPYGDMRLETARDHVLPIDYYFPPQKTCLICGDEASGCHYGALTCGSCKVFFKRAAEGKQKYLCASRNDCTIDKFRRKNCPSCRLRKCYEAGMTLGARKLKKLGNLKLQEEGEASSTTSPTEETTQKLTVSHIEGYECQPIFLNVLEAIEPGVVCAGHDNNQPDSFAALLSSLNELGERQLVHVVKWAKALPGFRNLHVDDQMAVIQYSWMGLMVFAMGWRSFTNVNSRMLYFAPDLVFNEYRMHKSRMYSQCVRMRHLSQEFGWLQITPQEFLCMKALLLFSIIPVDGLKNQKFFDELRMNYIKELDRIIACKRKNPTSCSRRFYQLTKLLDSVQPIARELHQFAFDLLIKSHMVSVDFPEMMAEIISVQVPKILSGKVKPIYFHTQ
Format: cell-based
How it was run: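 AR loss reported as IC50 from curve fits of fluorescence dose-response data, with AR immunostained and read by laser-scanning cytometry. Compound exposure was 20-22 h at 37° C in LNCaP cells grown in 5% charcoal-stripped FBS and plated overnight beforehand.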

DC50	SMILES
2.1 µM	N#Cc1ccc(CN2CCN(c3ccc4nnc(C(F)(F)Cl)n4n3)CC2)cc1 [Example 342]
1.7 µM	N#Cc1cccc(CN2CCN(c3ccc4nnc(C(F)(F)Cl)n4n3)CC2)c1 [Example 343]
0.29 µM	FC(F)(Cl)c1nnc2ccc(N3CCN(Cc4cccc(Br)c4)CC3)nn12 [Example 344]
1.1 µM	Fc1cccc(CN2CCN(c3ccc4nnc(C(F)(F)Cl)n4n3)CC2)c1 [Example 345]
8.5 µM	FC(F)(F)c1cccc(CN2CCN(c3ccc4nnc(C(F)(F)Cl)n4n3)CC2)c1 [Example 346]
0.97 µM	FC(F)(F)c1cccc(CN2CCN(c3ccc4nnc(C(F)(F)Cl)n4n3)CC2)c1 [Example 347]
1 µM	FC(F)(Cl)c1nnc2ccc(N3CCN(Cc4ccc(Br)cc4)CC3)nn12 [Example 348]
1.7 µM	FC(F)(Cl)c1nnc2ccc(N3CCN(CCc4ccccc4)CC3)nn12 [Example 349, 3-[chloro(difluoro)methyl]-6-[4-(2-phenylethyl)piperazin-1-yl][1,2,4]triazolo[4,3-b]pyridazine]
0.74 µM	CC(c1ccccc1)N1CCN(c2ccc3nnc(C(F)(F)Cl)n3n2)CC1 (stereo not drawn) [Example 350, 3-[chloro(difluoro)methyl]-6-[4-(1-Phenylethyl)piperazin-1-yl][1,2,4]triazolo[4,3-b]pyridazine]
1.9 µM	FC(F)(F)c1cnc(N2CCCN(c3ccc4nnc(C(F)(F)Cl)n4n3)CC2)c(Cl)c1 [Example 351, 3-[chloro(difluoro)methyl]-6-[4-[3-chloro-5-(trifluoromethyl)pyridin-2-yl]-1,4-diazepan-1-yl][1,2,4]triazolo[4,3-b]pyridazine]
0.57 µM	CC1CN(Cc2ccccc2)CCN1c1ccc2nnc(C(F)(F)Cl)n2n1 (stereo not drawn) [Example 352, 6-(4-benzyl-2-methylpiperazin-1-yl)-3-[chloro(difluoro)methyl][1,2,4]triazolo[4,3-b]pyridazine]
0.69 µM	Cc1cccc(C)c1N1CCN(c2ccc3nnc(C(F)(F)Cl)n3n2)CC1 [Example 353, 3-[chloro(difluoro)methyl]-6-[4-(2,6-dimethylphenyl)piperazin-1-yl][1,2,4]triazolo[4,3-b]pyridazine]
2.7 µM	FC(F)(Cl)c1nnc2ccc(N3CC4CN(Cc5ccccc5)CC4C3)nn12 (stereo not drawn) [Example 354, 6-(5-benzylhexahydropyrrolo[3,4-c]pyrrol-2(1H)-yl)-3-[chloro(difluoro)methyl][1,2,4]triazolo[4,3-b]pyridazine]
0.72 µM	FC(F)(Cl)c1nnc2ccc(N3CCCC(c4ccccc4)CC3)nn12 (stereo not drawn) [Example 355, 3-[chloro(difluoro)methyl]-6-(4-phenylazepan-1-yl)[1,2,4]triazolo[4,3-b]pyridazine]
2.2 µM	FC(F)(Cl)c1nnc2ccc(N3CCN(Cc4cccs4)CC3)nn12 [Example 356, 3-[chloro(difluoro)methyl]-6-[4-(thiophen-2-ylmethyl)piperazin-1-yl][1,2,4]triazolo[4,3-b]pyridazine]
2.1 µM	FC(F)(Cl)c1nnc2ccc(N3CCN(Cc4ccsc4)CC3)nn12 [Example 357, 3-[chloro(difluoro)methyl]-6-[4-(thiophen-3-ylmethyl)piperazin-1-yl][1,2,4]triazolo[4,3-b]pyridazine]
6.7 µM	C[C@H]1CN(Cc2ccncc2)CCN1c1ccc2nnc(C(F)(F)F)n2n1 [Example 358, 6-[(2S)-2-methyl-4-(pyridin-4-ylmethyl)piperazin-1-yl]-3-(trifluoromethyl)[1,2,4]triazolo[4,3-b]pyridazine]
2.6 µM	C[C@H]1CN(Cc2ccccn2)CCN1c1ccc2nnc(C(F)(F)F)n2n1 [Example 359]
1 µM	C[C@H]1CN(Cc2cccc(Br)n2)CCN1c1ccc2nnc(C(F)(F)F)n2n1 [Example 360]
4.7 µM	C[C@H]1CN(Cc2ccc(C(F)(F)F)nc2)CCN1c1ccc2nnc(C(F)(F)F)n2n1 [Example 361]
> 33 µM	C[C@H]1CN(Cc2cncc(F)c2)CCN1c1ccc2nnc(C(F)(F)F)n2n1 [Example 366]
4.1 µM	FC(F)(F)c1nnc2ccc(N3CCN(Cc4cccc(Br)n4)CC3)nn12 [Example 367, 6-[4-[(6-bromopyridin-2-yl)methyl]piperazin-1-yl]-3-(trifluoromethyl)[1,2,4]triazolo[4,3-b]pyridazine]
8.7 µM	FC(F)(F)c1nnc2ccc(N3CCN(Cc4cccnc4Cl)CC3)nn12 [Example 369]
0.93 µM	FC(F)(F)c1nnc2ccc(N3CCN(Cc4ccc(Br)nc4)CC3)nn12 [Example 374, 6-[4-[(6-bromopyridin-3-yl)methyl]piperazin-1-yl]-3-(trifluoromethyl)[1,2,4]triazolo[4,3-b]pyridazine]
3 µM	FC(F)(F)c1nnc2ccc(N3CCN(Cc4cccnc4Br)CC3)nn12 [Example 376]
5.9 µM	FC(F)(F)c1nnc2ccc(N3CCN(Cc4cnccc4Br)CC3)nn12 [Example 377]

DC50	SMILES
4.2 µM	N#Cc1cc(F)c(CN2CCN(c3ccc4nnc(C(F)(F)F)n4n3)CC2)c(F)c1 [Example 380]
2.1 µM	Fc1cccc(CN2CCN(c3ccc4nnc(C(F)(F)F)n4n3)CC2)c1F [Example 381]
1.8 µM	Fc1ccc(CN2CCN(c3ccc4nnc(C(F)(F)F)n4n3)CC2)c(F)c1 [Example 382]
2.9 µM	Fc1cccc(F)c1CN1CCN(c2ccc3nnc(C(F)(F)F)n3n2)CC1 [Example 384]
2.1 µM	COc1ccc(CN2CCN(c3ccc4nnc(C(F)(F)F)n4n3)CC2)c(F)c1 [Example 385]
2.4 µM	Fc1ccc(F)c(CN2CCN(c3ccc4nnc(C(F)(F)F)n4n3)CC2)c1 [Example 386]
1.6 µM	COc1ccc(CN2CCN(c3ccc4nnc(C(F)(F)F)n4n3)CC2)cc1F [Example 388]
1.5 µM	N#Cc1ccc(CN2CCN(c3ccc4nnc(C(F)(F)F)n4n3)CC2)c(F)c1 [Example 389]
1.7 µM	COc1ccc(F)c(CN2CCN(c3ccc4nnc(C(F)(F)F)n4n3)CC2)c1 [Example 390]
2.7 µM	Fc1cc(F)cc(CN2CCN(c3ccc4nnc(C(F)(F)F)n4n3)CC2)c1 [Example 391]
5.6 µM	O=S(=O)(c1ccc2ccccc2c1)N1CCN(c2ccc3nnc(C(F)(F)F)n3n2)CC1 [Example 394, 6-[4-(naphthalen-2-ylsulfonyl)piperazin-1-yl]-3-(trifluoromethyl)[1,2,4]triazolo[4,3-b]pyridazine]
1.8 µM	COc1cccc(S(=O)(=O)N2CCN(c3ccc4nnc(C(F)(F)F)n4n3)CC2)c1 [Example 396]
3.9 µM	COc1ccccc1S(=O)(=O)N1CCN(c2ccc3nnc(C(F)(F)F)n3n2)CC1 [Example 397]
1.9 µM	COc1ccc(S(=O)(=O)N2CCN(c3ccc4nnc(C(F)(F)F)n4n3)CC2)cc1 [Example 398]
3.7 µM	COc1ccc(OC)c(S(=O)(=O)N2CCN(c3ccc4nnc(C(F)(F)F)n4n3)CC2)c1 [Example 399]
4.8 µM	N#Cc1ccccc1S(=O)(=O)N1CCN(c2ccc3nnc(C(F)(F)F)n3n2)CC1 [Example 403]
2.7 µM	COc1ccc(S(=O)(=O)N2CCN(c3ccc4nnc(C(F)(F)F)n4n3)CC2)c(OC)c1 [Example 404]
3 µM	O=S(=O)(c1ccc(F)cc1)N1CCN(c2ccc3nnc(C(F)(F)F)n3n2)CC1 [Example 405]
6.3 µM	CN(Cc1cccnc1)C1CCN(c2ccc3nnc(C(F)(F)F)n3n2)CC1 [Example 406, N-methyl-N-(pyridin-3-ylmethyl)-1-[3-(trifluoromethyl)[1,2,4]triazolo[4,3-b]pyridazin-6-yl]piperidin-4-amine]
5.7 µM	CN(Cc1ccc(F)cc1)C1CCN(c2ccc3nnc(C(F)(F)F)n3n2)CC1 [Example 407]
1.7 µM	CN(Cc1ccc(F)c(F)c1)C1CCN(c2ccc3nnc(C(F)(F)F)n3n2)CC1 [Example 408]
3.9 µM	CN(Cc1ccc(C#N)cc1)C1CCN(c2ccc3nnc(C(F)(F)F)n3n2)CC1 [Example 409]
2.1 µM	CN(Cc1cc(F)cc(F)c1)C1CCN(c2ccc3nnc(C(F)(F)F)n3n2)CC1 [Example 410]
2.2 µM	CN(Cc1ccc(F)c(C#N)c1)C1CCN(c2ccc3nnc(C(F)(F)F)n3n2)CC1 [Example 411]
9.1 µM	CN(CCO)C(=O)c1ccc(OC2CCN(c3ccc4nnc(C(F)(F)F)n4n3)CC2)cc1 [Example 412, N-(2-hydroxyethyl)-N-methyl-4-[[1-[3-(trifluoromethyl)-[1,2,4]triazolo[4,3-b]pyridazin-6-yl]piperidin-4-yl]oxy]benzamide]
